In brackets after ≈: the same amount, converted by molar mass. Read-outs that look alike come from different tables or passages of the source. Where no end group is shown, it is not given here.
Assays:
[1] = tested on: human vascular endothelial cells and fibroblast cells; format: cell-based; details: polypeptide 10 μg/mL, Day 11 of culture
Method: Using AG30-5C as a positive control, the angiogenesis-inducing activity of SR-1 and SR-2 was measured. More concretely, using an angiogenesis kit (Angiogenesis Kit, KZ-1000, KURABO […] LTD.), the ability of the polypeptides to form lumina was evaluated. As a negative control, polypeptide-free group (Control) was used.
Each polypeptide was added to a special medium for angiogenesis (KURABO […] LTD., KZ-1500) such that the concentration thereof was 10 μg/mL. Cells were cultured at 37° C. under 5% CO2 in a 24-well plate using the special media to which the polypeptide was added. The medium was replaced with a medium containing the same polypeptide on Day 4, Day 7 and Day 9 of culture. On Day 11 from the beginning of the culture, the medium was removed and staining was performed using a kit for staining lumina (for CD31 antibody staining) according to the following procedure.
The primary antibody (mouse anti-human CD31 antibody) was 4000-fold diluted with a blocking solution (Dulbecco's phosphate buffered saline (PBS(−)) containing 1% BSA). To each well, 0.5 mL of this primary antibody solution was added, and the plate was incubated for 60 minutes at 37° C. After the completion of the incubation, each well was washed totally 3 times with 1 mL of the blocking solution.
Then, 0.5 mL of a secondary antibody solution (goat anti-mouse IgG/alkaline phosphatase conjugate) 500-fold diluted with the blocking solution was added to each well. The plate was incubated for 60 minutes at 37° C., and thereafter each well was washed 3 times with 1 mL of distilled water. During that period, 2 tablets of BCIP/NBT were dissolved into distilled water, and the obtained solution was filtered through a filter having a pore size of 0.2 μm to prepare a substrate solution. To each well, 0.5 mL of the prepared BCIP/NBT substrate solution was added, and the plate was incubated at 37° C. until the lumina turned to deep purple (typically for 5-10 minutes). After the completion of the incubation, each well was washed 3 times with 1 mL of distilled water. After washing, the washing solution was removed by aspiration, and the plate was left to stand and dry naturally. After drying, photographs of each well were taken under a microscope.
Each of the obtained images was quantified using an angiogenesis quantification software. Computer analysis was carried out on various parameters. And, on the basis of its scale, the lengths of formed lumina observed in each visual field were measured, and the effect of adding the polypeptides compared with Control was evaluated.

[2] = tested on: Pseudomonas aeruginosa (clinical strain 12); assay: MIC measurement, broth microdilution; format: cell-based; details: Pseudomonas aeruginosa; 37° C. for 20 hours; tested twice, first/second value where not matched
MRSA (clinical strain 1) = assay: microbe, parasite or virus in culture; format: cell-based; details: Staphylococcus aureus, 37° C. for 20 hours, tested twice, first/second value where not matched
Method: (§1) Further, with respect to not only the above-described strains but also various other strains, the “minimum inhibitory concentration (MIC)” was measured as follows. MIC is the lowest concentration of an agent that may inhibit the growth of a bacterium. MIC is used as a parameter for the efficacy of an antibacterial agent, for the strength of bacterial sensitivity, or the like. The bacteria can grow (proliferate) when the concentration is not higher than MIC, and cannot grow when the concentration is higher than MIC. Its measurement is carried out according to a method defined as a standard method by Japanese Society of Chemotherapy or CLINICAL AND LABORATORY […] (CLSI), but, in this Example, its measurement was carried out by a broth microdilution method in accordance with “M100-S17/M7-A7” (Performance Standards for Antimicrobial Susceptibility Testing; Seventeenth Informational Supplement, Vol. 27 No. 1) published by CLSI on January, 2007. That is, sensitivity test of agents was carried out using a microtiter plate or test tubes.
(§2) The bacteria were cultured in liquid media for 4 to 6 hours, and thereafter absorbances at A600 were measured. Bacterial suspensions were diluted with Mueller-Hinton broth (MHB) according to McFarland #0.5. Each strain was added so as to attain about 10^5 CFU/ml (final concentration). Each peptide was prepared to an optional concentration, and the solutions were serially diluted from the concentration. The polypeptide at each concentration stage was added to a microplate or test tubes, and the bacterial suspension was added thereto. Chloramphenicol, amphotericin B, ciprofloxacin, meropenem (MEPM), ciprofloxacin (CPFX), tobramycin (TOB) and oxacillin (OX) were used as positive controls. The plate was incubated at 37° C. for 20 hours, and the lowest concentration where bacterial growth was inhibited was regarded as the minimum inhibitory concentration.

[3] = tested on: Klebsiella pneumoniae JCM 1662; assay: Antibacterial activity, ATP assay (BacTiter-Glo); format: cell-based
Method: (§3) The antibacterial activity of each of SR-08 and SR-07 polypeptides was measured using an ATP assay method. That is, using BacTiter-Glo Microbial Cell Viability Assay kit available from PROMEGA, the antibacterial activity of the peptides was evaluated from the viability of bacteria. In other words, ATP amount in viable bacteria in cases where the concentration of the peptides was 10 μg/mL was measured using a microtiter plate or test tubes. As controls, tobramycin (TOB), oxacillin (OX) and meropenem (MEPM) were used at the concentrations as respectively shown in Table 6 below.
(§4) With respect to the strains, Escherichia coli: ATCC 25922 (Escherichia coli ATCC 25922), Pseudomonas aeruginosa: ATCC 27853 (Pseudomonas aeruginosa ATCC 27853), Staphylococcus aureus: ATCC29213 (Staphylococcus aureus ATCC29213), Klebsiella pneumoniae: JCM 1662 (Klebsiella pneumoniae JCM 1662), enterobacteria (1): JCM 1232 (Enterobacter cloacae JCM 1232), and enterobacteria (2): JCM 1235 (Enterobacter aerogenes JCM 1235), were used.
(§5) The bacteria were cultured in media for 3 to 4 hours, and thereafter absorbances at A600 were measured. Bacterial suspensions were diluted with Mueller-Hinton broth (MHB) according to McFarland #0.5. Each strain was added so as to attain about 0.5-1×10^5 CFU/mL (final concentration) in terms of Escherichia coli. Each peptide was prepared and added to a microplate or test tubes so as to attain a final concentration of 10 μg/mL, and the bacterial suspension was added thereto. The plate was incubated at 37° C. for 3 hours, and the amount of ATP in the culture media was measured. Relative values were calculated by comparison with the negative control, and these values were regarded as the viability.

[4] = tested on: Enterobacter cloacae JCM 1232; assay: Antibacterial activity, ATP assay (BacTiter-Glo); format: cell-based
Method: as §3, §4, §5

[5] = tested on: Escherichia coli ATCC 25922; assay: Antibacterial activity, ATP assay (BacTiter-Glo); format: cell-based
Method: as §3, §4, §5

[6] = tested on: Pseudomonas aeruginosa (clinical strain 8); assay: MIC measurement, broth microdilution; format: cell-based; details: Pseudomonas aeruginosa; 37° C. for 20 hours; tested twice, first/second value where not matched
[7] = tested on: Pseudomonas aeruginosa (clinical strain 9); assay: MIC measurement, broth microdilution; format: cell-based; details: Pseudomonas aeruginosa; 37° C. for 20 hours; tested twice, first/second value where not matched
MRSA (clinical strain 2) = assay: microbe, parasite or virus in culture; format: cell-based, Staphylococcus aureus; details: 37° C. for 20 hours, tested twice, first/second value where not matched
Method: as §1, §2

MSSA (clinical strain 1) = assay: microbe, parasite or virus in culture; format: cell-based, Staphylococcus aureus; details: Staphylococcus aureus, MSSA; 37° C. for 20 hours; tested twice, first/second value where not matched
Method: as §1, §2

MSSA (clinical strain 2) = assay: microbe, parasite or virus in culture; format: cell-based, Staphylococcus aureus; details: 37° C. for 20 hours, tested twice, first/second value where not matched
Method: as §1, §2

[8] = tested on: Pseudomonas aeruginosa (clinical strain 1); assay: microbe, parasite or virus in culture; format: cell-based; details: Pseudomonas aeruginosa; 37° C. for 20 hours; tested twice, first/second value where not matched
[9] = tested on: Staphylococcus aureus ATCC29213; assay: Antibacterial activity, ATP assay (BacTiter-Glo); format: cell-based
Method: (§6) The antibacterial activity of the polypeptides was measured using an ATP assay method. Using BacTiter-Glo Microbial Cell Viability Assay kit available from PROMEGA, the antibacterial activity of the peptides was evaluated from the viability of bacteria. […] With respect to the strains, Staphylococcus aureus ATCC29213 (S. aureus ATCC29213) as Gram-positive bacteria, or, alternatively, Pseudomonas aeruginosa (P. aeruginosa ATCC27853) as Gram-negative bacteria, was used. The bacteria were cultured in media for 3 to 4 hours, and thereafter absorbances at A600 were measured. Bacterial suspensions were diluted with Mueller-Hinton broth (MHB) according to McFarland #0.5. […] A solution to which the peptides were not added was considered as a negative control, and a solution to which tobramycin (TOB) was added was considered as a positive control. The plate was incubated at 37° C. for 3 hours, and the amount of ATP in the culture media was measured. Relative values were calculated by comparison with the negative control, and these values were regarded as the viability. The antibacterial activity of each of SR-08 and SR-07 polypeptides was measured using an ATP assay method. That is, using BacTiter-Glo Microbial Cell Viability Assay kit available from PROMEGA, the antibacterial activity of the peptides was evaluated from the viability of bacteria. […] As controls, tobramycin (TOB), oxacillin (OX) and meropenem (MEPM) were used at the concentrations as respectively shown in Table 6 below. With respect to the strains, Escherichia coli: ATCC 25922 (Escherichia coli ATCC 25922), Pseudomonas aeruginosa: ATCC 27853 (Pseudomonas aeruginosa ATCC 27853), Staphylococcus aureus: ATCC29213 (Staphylococcus aureus ATCC29213), Klebsiella pneumoniae: JCM 1662 (Klebsiella pneumoniae JCM 1662), enterobacteria (1): […] JCM 1235 (Enterobacter aerogenes JCM 1235), were used. The bacteria were cultured in media for 3 to 4 hours, and thereafter absorbances at A600 were measured. Bacterial suspensions were diluted with Mueller-Hinton broth (MHB) according to McFarland #0.5. […] The plate was incubated at 37° C. for 3 hours, and the amount of ATP in the culture media was measured. Relative values were calculated by comparison with the negative control, and these values were regarded as the viability.

[10] = tested on: Pseudomonas aeruginosa ATCC 27853; assay: Antibacterial activity, ATP assay (BacTiter-Glo); format: cell-based
Method: as §6

[11] = tested on: Enterobacter aerogenes JCM 1235; assay: Antibacterial activity, ATP assay (BacTiter-Glo); format: cell-based
Method: as §3, §4, §5

[12] = tested on: Pseudomonas aeruginosa (clinical strain 6); assay: MIC measurement, broth microdilution; format: cell-based; details: Pseudomonas aeruginosa; 37° C. for 20 hours; tested twice, first/second value where not matched
[13] = tested on: Staphylococcus epidermidis; assay: MIC measurement, broth microdilution; format: cell-based; details: Staphylococcus epidermidis; 37° C. for 20 hours; tested twice, first/second value where not matched
Method: as §1, §2

[14] = Table 7, mean values, peptides 10 μg/mL, TOB 4.0, OX 4.0, MEPM 0.5 μg/mL, 37° C. 3 hours, relative to negative control
[15] = Table 7, mean values, peptides 10 μg/mL, TOB 1.0, OX 1.0, MEPM 0.5 μg/mL, 37° C. 3 hours, relative to negative control
[16] = Table 5, peptides 10 μg/mL, 37° C. for 3 hours, ATP amount relative to negative control

Compound | The Length of Lumina (Percentage when taking Control as 100) ([1]; Table 3) [%] | The Length of Lumina (Percentage when taking Control as 100) ([1]; Table 4) [%] | MIC [2] [µg/mL] | MIC (MRSA (clinical strain 1)) [µg/mL] | MIC [6] [µg/mL] | MIC [7] [µg/mL] | MIC (MSSA (clinical strain 1)) [µg/mL] | MIC [8] [µg/mL] | MIC [12] [µg/mL] | MIC [13] [µg/mL] | also measured
ELRFLHRLKRRLRKRLKRKLR-NH2 [SR-2] | 124.6 | – | – | – | – | – | – | – | – | – | –
MLKLIFLHRLKRMRKRLKRK [SR-1] | 124.3 | – | – | – | – | – | – | – | – | – | –
MLKLIFLHRLKRMRKRLKRKLRFWHRKRYK [AG30-5C] | 119.1 | 165.7 | – | – | – | – | – | – | – | – | –
ARLDVASEFRKKWNKWALSR-amide (ARLDVASEFRKKWNKWALSR-NH2; listed as Homo sapiens) [PAMP] | – | 124.6 | – | – | – | – | – | – | – | – | –
NC[C@H]1O[C@H](O[C@H]2[C@H](O)[C@@H](O[C@H]3O[C@H](CO)[C@@H](O)[C@H](N)[C@H]3O)[C@H](N)C[C@@H]2N)[C@H](N)C[C@@H]1O [TOB, tobramycin] | – | – | < 4 | > 16 | < 4 | < 4 | < 4 | > 16 | < 4 | 0.12 to 1 (≈ 0.257 to 2.14 µM) | Viability, Klebsiella pneumoniae [3, 14]: 4.6; Viability, Enterobacteria (1) [4, 14]: 2.9; Viability, Escherichia coli [5, 15]: 4.1; MIC (MRSA (clinical strain 2); Staphylococcus aureus, MRSA): > 16 µg/mL; MIC (MSSA (clinical strain 2); Staphylococcus aureus, MSSA): < 4 µg/mL; Viability (%) Staphylococcus aureus [9, 16]: 3.5%; Viability, Staphylococcus aureus ([9]; Table 7, mean values, peptides 10 μg/mL, TOB 1.0, OX 0.125, MEPM 0.5 μg/mL, 37° C. 3 hours, relative to negative control): 3.4; Viability (%) Pseudomonas aeruginosa [10, 16]: 1.8%; Viability, Pseudomonas aeruginosa [10, 15]: 1.5; Viability, Enterobacteria (2) [11, 14]: 0.7
C[C@@H](O)[C@H]1C(=O)N2C(C(=O)O)=C(S[C@@H]3CN[C@H](C(=O)N(C)C)C3)[C@H](C)[C@H]12 [MEPM, meropenem] | – | – | < 4 | < 4 | < 4 | < 4 | < 4 | < 4 | 8 (≈ 20.9 µM) | 0.03 to 0.12 (≈ 0.0782 to 0.313 µM) | viability at 0.5 µg/mL ([3]; Klebsiella pneumoniae, JCM1662, 3 h, read-out: Viability, Klebsiella pneumoniae): 9.2%; viability at 0.5 µg/mL ([4]; Enterobacter cloacae, JCM1232, 3 h, read-out: Viability, Enterobacteria (1)): 3.8%; viability at 0.5 µg/mL ([5]; Escherichia coli, ATCC25922, 3 h, read-out: Viability, Escherichia coli): 12.4%; MIC, MRSA (clinical strain 2) (MRSA (clinical strain 2)): 8/16; MIC, MSSA (clinical strain 2) (MSSA (clinical strain 2)): 4/8; viability at 0.5 µg/mL ([9]; Staphylococcus aureus, ATCC29213, 3 h, read-out: Viability, Staphylococcus aureus): 89.8%; viability at 0.5 µg/mL ([10]; Pseudomonas aeruginosa, ATCC27853, 3 h, read-out: Viability, Pseudomonas aeruginosa): 19.3%; viability at 0.5 µg/mL ([11]; Klebsiella aerogenes, JCM1235, 3 h, read-out: Viability, Enterobacteria (2)): 1.7%

— patent US9695219B2, “Polypeptide having antibacterial activity and angiogenesis-inducing activity and wound-healing drug containing said polypeptide” (priority 2009, dated 2017)
